Measured values published in US10774051B2, “6-membered heterocyclic derivatives and pharmaceutical composition comprising the same” (Shionogi & Co., Ltd., priority 2015, dated 2020).

These molecules were tested against human P2X7 receptor (Homo sapiens, UniProt Q99572, R270H/Y155H) (assay: Evaluation of human P2X7 receptor inhibitory activity (Yo-Pro uptake, BzATP stimulation, FLIPR TETRA)). Settings: 1321N1 cells stably expressing human P2X7 receptor; BzATP stimulation, Yo-Pro uptake; read-out: IC50 (antagonistic activity for the human P2X7 receptor).
Format: cell-based
In short: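 Yo-Pro dye uptake triggered by BzATP was monitored by FLIPR in human P2X7-transfected 1321N1 cells (SNP variant) in HEPES-buffered HBSS, pH 7.4-7.5. Compound was dispensed 8 min post-stimulation, then signal read for 20 min; IC50 derived logistically from inhibition of the fluorescence range.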

Structure (SMILES)	IC50
COc1ccc(Nc2nc(=O)c(F)cn2Cc2ccc(F)c(Cl)c2)c(C)n1 [Compound I-1059]	11 nM
COc1cc(C)c(Nc2nc(=O)c(F)cn2Cc2cc(F)cc(F)c2)cc1C(C)C [Compound I-1071]	15 nM

Same assay, conditions: antagonistic activity for the human P2X7 receptor; read-out: IC50

Structure (SMILES)	IC50
Cc1cc2[nH]ccc2cc1Nc1nc(=O)c(F)cn1Cc1cc(F)cc(F)c1 [Compound I-1044]	< 10 nM
Cc1cc2[nH]ccc2cc1Nc1nc(=O)c(F)cn1Cc1cc(F)c(F)c(F)c1 [Compound I-1045]	< 10 nM
Cc1cc2c(cc1Nc1nc(=O)c(F)cn1Cc1cc(F)c(F)c(F)c1)CCO2 [Compound I-1046]	< 10 nM
CCOc1ccc(Nc2nc(=O)c(F)cn2Cc2cc(F)cc(F)c2)c(C)c1 [Compound I-1047]	10 to 100 nM
CCOc1ccc(Nc2nc(=O)c(F)cn2Cc2ccc(F)c(F)c2)c(C)c1 [Compound I-1048]	10 to 100 nM
COc1ccc(Nc2nc(=O)c(F)cn2Cc2ccc(F)c(F)c2)c(C)n1 [Compound I-1049]	10 to 100 nM
COc1cc(Nc2nc(=O)c(F)cn2Cc2ccc(F)c(Cl)c2)c(C)cc1F [Compound I-1051]	< 10 nM
COc1cc(Nc2nc(=O)c(F)cn2Cc2ccc(F)c(F)c2)c(C)cc1F [Compound I-1052]	< 10 nM
Cc1ccc(N2CC3CCC2C3)cc1Nc1nc(=O)c(F)cn1Cc1cc(F)c(F)c(F)c1 (stereo not drawn) [Compound I-1053]	10 to 100 nM
Cc1cc2cc(Nc3nc(=O)c(F)cn3Cc3cc(F)c(F)c(F)c3)c(C)cc2[nH]1 [Compound I-1054]	< 10 nM
Cc1cc2cc(Nc3nc(=O)c(F)cn3Cc3ccc(F)c(Cl)c3)c(C)cc2[nH]1 [Compound I-1055]	10 to 100 nM
Cc1cc2cc(Nc3nc(=O)c(F)cn3Cc3ccc(F)c(F)c3)c(C)cc2[nH]1 [Compound I-1056]	10 to 100 nM
Cc1cc2cc(Nc3nc(=O)c(F)cn3Cc3cc(F)cc(F)c3)c(C)cc2[nH]1 [Compound I-1057]	10 to 100 nM
COc1cc(Nc2nc(=O)c(F)cn2Cc2cc(F)c(F)c(F)c2)c(C)cc1F [Compound I-1058]	< 10 nM
CCOc1cc(C)c(Nc2nc(=O)c(F)cn2Cc2ccc(F)c(Cl)c2)cc1F [Compound I-1060]	10 to 100 nM
CCOc1cc(C)c(Nc2nc(=O)c(F)cn2Cc2cc(F)cc(F)c2)cc1F [Compound I-1061]	10 to 100 nM
CCOc1cc(C)c(Nc2nc(=O)c(F)cn2Cc2ccc(F)c(F)c2)cc1F [Compound I-1062]	10 to 100 nM
Cc1cc(OC(F)F)ccc1Nc1nc(=O)c(F)cn1Cc1ccc(F)c(Cl)c1 [Compound I-1063]	10 to 100 nM
Cc1cc(OC(F)F)ccc1Nc1nc(=O)c(F)cn1Cc1cc(F)cc(F)c1 [Compound I-1064]	10 to 100 nM
Cc1cc(OC(F)F)ccc1Nc1nc(=O)c(F)cn1Cc1ccc(F)c(F)c1 [Compound I-1065]	10 to 100 nM
COc1ccc(C)c(Nc2nc(=O)c(F)cn2Cc2ccc(F)c(Cl)c2)c1 [Compound I-1067]	< 10 nM
COc1ccc(C)c(Nc2nc(=O)c(F)cn2Cc2ccc(F)c(F)c2)c1 [Compound I-1068]	< 10 nM
COc1ccc(C)c(Nc2nc(=O)c(F)cn2Cc2cc(F)cc(F)c2)c1 [Compound I-1069]	10 to 100 nM
COc1cc(C)c(Nc2nc(=O)c(F)cn2Cc2cc(F)c(F)c(F)c2)cc1C(C)C [Compound I-1070]	10 to 100 nM
Cc1cc2c(cc1Nc1nc(=O)c(F)cn1Cc1ccc(F)c(F)c1)CCO2 [Compound I-1072]	< 10 nM
Cc1cc2c(cc1Nc1nc(=O)c(F)cn1Cc1ccc(F)c(Cl)c1)CCO2 [Compound I-1073]	< 10 nM

Structure (SMILES)	IC50
O=c1nc(Nc2cccc3c2CCN3)n(Cc2cc(F)cc(F)c2)cc1F [Compound I-1074]	10 to 100 nM
Cc1nc2cc(Cl)c(Nc3nc(=O)c(F)cn3Cc3cc(F)cc(F)c3)cc2o1 [Compound I-1075]	< 10 nM
Cc1nc2cc(Cl)c(Nc3nc(=O)c(F)cn3Cc3ccc(F)c(F)c3)cc2o1 [Compound I-1076]	< 10 nM
Cc1nc2cc(Cl)c(Nc3nc(=O)c(F)cn3Cc3ccc(F)c(Cl)c3)cc2o1 [Compound I-1077]	< 10 nM
Cc1nc2cc(Cl)c(Nc3nc(=O)c(F)cn3Cc3cc(F)c(F)c(F)c3)cc2o1 [Compound I-1078]	< 10 nM
COC(=O)/C=C/c1ccc(C)c(Nc2nc(=O)c(OC)cn2Cc2cc(F)c(F)c(F)c2)c1 [Compound I-1079]	10 to 100 nM
CCOC(=O)c1cn(Cc2cc(F)c(F)c(F)c2)c(Nc2ccc(OC)cc2C)nc1=O [Compound I-1080]	10 to 100 nM
COc1cc(C)c(Nc2nc(=O)c(C(N)=O)cn2Cc2cc(F)c(F)c(F)c2)cc1C [Compound I-1081]	10 to 100 nM
Cc1ccccc1Nc1nc(=O)c(F)cn1Cc1cc(F)c(F)c(F)c1 [Compound I-1082]	< 10 nM
COc1cc(C)c(Nc2nc(=O)c(C#N)cn2Cc2cc(F)c(F)c(F)c2)cc1C [Compound I-1083]	< 10 nM
COCc1ccc(C)c(Nc2nc(=O)c(F)cn2Cc2ccc(F)c(F)c2)c1 [Compound I-1084]	< 10 nM
COCc1ccc(C)c(Nc2nc(=O)c(F)cn2Cc2ccc(F)c(Cl)c2)c1 [Compound I-1085]	< 10 nM
COCc1ccc(C)c(Nc2nc(=O)c(F)cn2Cc2cc(F)c(F)c(F)c2)c1 [Compound I-1086]	< 10 nM
COc1cc(C)c(Nc2nc(=O)c(F)cn2Cc2cc(F)c(F)c(F)c2)cc1F [Compound I-1087]	< 10 nM
Cc1nc2cc(C)c(Nc3nc(=O)c(CCO)cn3Cc3cc(F)c(F)c(F)c3)cc2s1 [Compound I-1088]	10 to 100 nM
Cc1cc(C)c(Nc2nc(=O)c(F)cn2Cc2ccc(F)c(Cl)c2)cc1CO [Compound I-1089]	< 10 nM
Cc1nc2[nH]ccc2cc1Nc1nc(=O)c(F)cn1Cc1ccc(F)c(F)c1 [Compound I-1090]	10 to 100 nM
Cc1nc2[nH]ccc2cc1Nc1nc(=O)c(F)cn1Cc1ccc(F)c(Cl)c1 [Compound I-1091]	10 to 100 nM
Cc1cc2[nH]ncc2cc1Nc1nc(=O)c(F)cn1Cc1cc(F)cc(F)c1 [Compound I-1092]	10 to 100 nM
Cc1cc2[nH]ncc2cc1Nc1nc(=O)c(F)cn1Cc1ccc(F)c(Cl)c1 [Compound I-1093]	10 to 100 nM
Cc1cc2[nH]ncc2cc1Nc1nc(=O)c(F)cn1Cc1cc(F)c(F)c(F)c1 [Compound I-1094]	< 10 nM
Cc1cc2[nH]ncc2cc1Nc1nc(=O)c(F)cn1Cc1ccc(F)c(F)c1 [Compound I-1095]	10 to 100 nM
O=c1nc(Nc2cccc3cnccc23)n(Cc2cc(F)c(F)c(F)c2)cc1F [Compound I-1096]	10 to 100 nM
COc1cn(Cc2cc(F)c(F)c(F)c2)c(Nc2ccccc2C)nc1=O [Compound I-1097]	10 to 100 nM
Cc1ccccc1Nc1nc(=O)c(C)cn1Cc1cc(F)c(F)c(F)c1 [Compound I-1098]	10 to 100 nM
COc1ccc(Nc2nc(=O)c(C(=O)O)cn2Cc2cc(F)c(F)c(F)c2)c(C)c1 [Compound I-1099]	10 to 100 nM

Structure (SMILES)	IC50
COc1ccc(Nc2nc(=O)c(C(N)=O)cn2Cc2cc(F)c(F)c(F)c2)c(C)c1 [Compound I-1100]	10 to 100 nM
COc1cc(C)c(Nc2nc(=O)c(F)cn2Cc2cc(F)cc(F)c2)cc1F [Compound I-1101]	10 to 100 nM
Cc1cc(OC(F)(F)F)ccc1Nc1nc(=O)c(F)cn1Cc1cc(F)cc(F)c1 [Compound I-1102]	10 to 100 nM
Cc1cc(OC(F)(F)F)ccc1Nc1nc(=O)c(F)cn1Cc1cc(F)c(F)c(F)c1 [Compound I-1103]	10 to 100 nM
COc1ccc(Nc2nc(=O)c(CCO)cn2Cc2cc(F)c(F)c(F)c2)c(C)c1 [Compound I-1104]	10 to 100 nM
O=c1nc(Nc2cccc3c(O)cccc23)n(Cc2cc(F)c(F)c(F)c2)cc1F [Compound I-1105]	< 10 nM
CN1CCc2c(cccc2Nc2nc(=O)c(F)cn2Cc2cc(F)c(F)c(F)c2)C1 [Compound I-1107]	10 to 100 nM
CCOC(=O)c1cn(Cc2ccc(F)c(F)c2)c(Nc2cc(C)c(OC)cc2C)nc1=O [Compound I-1109]	< 10 nM
Cc1cc(C)c(Nc2nc(=O)c(F)cn2Cc2cc(F)c(F)c(F)c2)cc1CO [Compound I-1110]	< 10 nM
Cc1cc(C)c(Nc2nc(=O)c(F)cn2Cc2cc(F)cc(F)c2)cc1CO [Compound I-1111]	< 10 nM
COc1ccc(Nc2nc(=O)c(C#N)cn2Cc2cc(F)c(F)c(F)c2)c(C)c1 [Compound I-1112]	10 to 100 nM
Cc1cc(C)c(Nc2nc(=O)c(Br)cn2Cc2cc(F)cc(F)c2)cc1C [Compound I-1113]	< 10 nM
O=c1nc(Nc2cccc3c(O)cccc23)n(Cc2cc(F)cc(F)c2)cc1F [Compound I-1114]	< 10 nM
O=c1nc(Nc2cccc3c(O)cccc23)n(Cc2ccc(F)c(F)c2)cc1F [Compound I-1115]	< 10 nM
O=c1nc(Nc2cccc3c(O)cccc23)n(Cc2ccc(F)c(Cl)c2)cc1F [Compound I-1116]	< 10 nM
COc1cc(Nc2nc(=O)c(F)cn2Cc2cc(F)c(F)c(F)c2)c(C)nc1F [Compound I-1117]	10 to 100 nM
COc1cc(Nc2nc(=O)c(F)cn2Cc2cc(F)cc(F)c2)c(C)nc1F [Compound I-1118]	100 to 500 nM
Cc1c(Nc2nc(=O)c(F)cn2Cc2cc(F)cc(F)c2)ccc2[nH]ccc12 [Compound I-1119]	< 10 nM
Cc1c(Nc2nc(=O)c(F)cn2Cc2cc(F)c(F)c(F)c2)ccc2[nH]ccc12 [Compound I-1120]	< 10 nM
CCOC(=O)c1cn(Cc2cc(F)c(F)c(F)c2)c(Nc2ccc(OC(F)F)cc2C)nc1=O [Compound I-1121]	100 to 500 nM
CCOC(=O)c1cn(Cc2cc(F)c(F)c(F)c2)c(Nc2cc(OC)c(F)cc2C)nc1=O [Compound I-1122]	10 to 100 nM
COc1ccc(C)c(Nc2nc(=O)c(C#N)cn2Cc2cc(F)cc(F)c2)c1 [Compound I-1123]	100 to 500 nM
COCc1cn(Cc2cc(F)c(F)c(F)c2)c(Nc2ccc(OC(F)F)cc2C)nc1=O [Compound I-1124]	10 to 100 nM
COCc1cn(Cc2cc(F)c(F)c(F)c2)c(Nc2cc(OCCO)ccc2C)nc1=O [Compound I-1125]	10 to 100 nM
